Test results: patent US11807625B2, “Capsid inhibitors for the prevention of HIV” (Gilead Sciences, Inc., priority 2019, dated 2023)
Where two headings read alike, the source gives them in different places.

Test: PK of compound of Formula (Ia) after single subcutaneous dose of solution formulations in Wistar Han rats
Format: in vivo
Conditions: male, Wistar Han, rat, plasma, mean ± SD, SC 50 mg/kg; for AUC(0-t) / Cmax: sc, 50 mg/kg
Description: Formulations containing the compound of Formula (Ia), or a pharmaceutically acceptable salt thereof, were prepared as solutions and optionally administered subcutaneously or intramuscularly to rats, rabbits, and/or dogs.
(§1) A solution of about 400 mg/mL of the compound of Formula (Ia) having 19.14 w/w % water, 40.66 w/w % PEG 300, 35.20 w/w % of a sodium salt of a compound of Formula (Ia), and 5.00% ethanol was prepared. The solution was administered subcutaneously to male Wistar Han rats at a dose level of about 50 mg/kg and dose volume of 0.125 mL/kg and the pharmacokinetic (PK) profile was determined.
as §1, with “500” for “400”, “16.64” for “19.14”, “35.36” for “40.66”, “43.00” for “35.20”, “0.1” for “0.125”
(§2) A solution of about 400 mg/mL of the compound of Formula (Ia) having 17.00 w/w % water, 36.40 w/w % PEG 300, 35.20 w/w % of a sodium salt of a compound of Formula (Ia), 5.00 w/w % ethanol, and 6.40 w/w % poloxamer 188 was prepared. The solution was administered subcutaneously to male beagle dogs at a dose level of about 12 mg/kg and male Wistar Han rats at a dose level of about 50 mg/kg. The pharmacokinetic profiles were determined, and the results for dogs are summarized in Table and Table, while the results for rats are summarized in Table and Table below.
as §2, with “500” for “400”, “14.06” for “17.00”, “30.12” for “36.40”
A solution of about 300 mg/mL of the compound of Formula (Ia) having 23.33 w/w % water, 48.99 w/w % PEG 300, 26.47 w/w % of a sodium salt of a compound of Formula (Ia), and 1.21 w/w % poloxamer 188 was prepared. The solution was administered subcutaneously to male beagle dogs at a dose level of about 6 mg/kg and male Wistar Han rats at a dose level of about 50 mg/kg. The pharmacokinetic profiles were determined, and the results for dogs are summarized in Table and Table, while the results for rats are summarized in Table and Table below.
as §2, with “18.80” for “17.00”, “40.25” for “36.40”, “34.38” for “35.20”, “1.57” for “6.40”
as §2, with “500” for “400”, “16.29” for “17.00”, “34.88” for “36.40”, “41.92” for “35.20”, “1.91” for “6.40”
A solution of about 400 mg/mL of the compound of Formula (Ia) having 20.90 w/w % water, 44.72 w/w % PEG 300, and 34.38 w/w % of a sodium salt of a compound of Formula (Ia) was prepared. […]

[1] = n = 5 rats, solution T, 400 mg/mL

AUC(0-t) (n = 3 rats, solution R, 400 mg/mL, read-out: AUC0-1344h): 402 ± 58 µM·h
AUC(0-t) (n = 3 rats, solution R, 400 mg/mL, read-out: AUC0-1680h): 504 ± 80 µM·h
AUC(0-t) (n = 3 rats, solution R, 400 mg/mL, read-out: AUC0-2352h): 649 ± 95 µM·h
AUC(0-t) (n = 3 rats, solution R, 400 mg/mL, read-out: AUC0-3024h): 752 ± 92 µM·h
AUC(0-t) (n = 3 rats, solution R, 400 mg/mL, read-out: AUC0-3696h): 825 ± 80 µM·h
AUC(0-t) (n = 3 rats, solution R, 400 mg/mL, read-out: AUC0-4704h): 915 ± 44 µM·h
AUC(0-t) (n = 3 rats, solution R, 400 mg/mL, read-out: AUC0-5376h): 958 ± 21 µM·h
AUC(0-t) (n = 3 rats, solution R, 400 mg/mL, read-out: AUC0-6048h): 988 ± 4 µM·h
AUC(0-t) (n = 3 rats, solution R, 400 mg/mL, read-out: AUC0-7392h): 1020 ± 18 µM·h
AUC(0-t) (n = 3 rats, solution R, 400 mg/mL, read-out: AUC0-8064h): 1030 ± 25 µM·h
Cmax (n = 3 rats, solution S, 500 mg/mL): 328 ± 131 nM
AUC(0-t) (n = 3 rats, solution S, 500 mg/mL, read-out: AUC0-24 h): 2.47 ± 0.39 µM·h
AUC(0-t) (n = 3 rats, solution S, 500 mg/mL, read-out: AUC0-168 h): 19.7 ± 3.1 µM·h
AUC(0-t) (n = 3 rats, solution S, 500 mg/mL, read-out: AUC0-336 h): 44.2 ± 7.5 µM·h
AUC(0-t) (n = 3 rats, solution S, 500 mg/mL, read-out: AUC0-672 h): 133 ± 40 µM·h
AUC(0-t) (n = 3 rats, solution S, 500 mg/mL, read-out: AUC0-1008 h): 233 ± 79 µM·h
AUC(0-t) (n = 3 rats, solution S, 500 mg/mL, read-out: AUC0-1344 h): 334 ± 120 µM·h
AUC(0-t) (n = 3 rats, solution S, 500 mg/mL, read-out: AUC0-1680 h): 426 ± 148 µM·h
AUC(0-t) (n = 3 rats, solution S, 500 mg/mL, read-out: AUC0-2352 h): 554 ± 185 µM·h
AUC(0-t) (n = 3 rats, solution S, 500 mg/mL, read-out: AUC0-3024 h): 652 ± 203 µM·h
AUC(0-t) (n = 3 rats, solution S, 500 mg/mL, read-out: AUC0-3696 h): 722 ± 216 µM·h
AUC(0-t) (n = 3 rats, solution S, 500 mg/mL, read-out: AUC0-4704 h): 817 ± 224 µM·h
AUC(0-t) (n = 3 rats, solution S, 500 mg/mL, read-out: AUC0-5376 h): 861 ± 226 µM·h
AUC(0-t) (n = 3 rats, solution S, 500 mg/mL, read-out: AUC0-6048 h): 896 ± 220 µM·h
AUC(0-t) (n = 3 rats, solution S, 500 mg/mL, read-out: AUC0-6720 h): 923 ± 229 µM·h
AUC(0-t) (n = 3 rats, solution S, 500 mg/mL, read-out: AUC0-7392 h): 945 ± 229 µM·h
AUC(0-t) (n = 3 rats, solution S, 500 mg/mL, read-out: AUC0-8064 h): 964 ± 228 µM·h
AUC(0-t) (n = 3 rats, solution V, 300 mg/mL, read-out: AUC0-24 h): 3.66 ± 4.29 µM·h
AUC(0-t) (n = 3 rats, solution V, 300 mg/mL, read-out: AUC0-168 h): 24.5 ± 5.4 µM·h
AUC(0-t) (n = 3 rats, solution V, 300 mg/mL, read-out: AUC0-336 h): 50.1 ± 9.2 µM·h
AUC(0-t) (n = 3 rats, solution V, 300 mg/mL, read-out: AUC0-672 h): 137 ± 27 µM·h
AUC(0-t) (n = 3 rats, solution V, 300 mg/mL, read-out: AUC0-1008 h): 237 ± 52 µM·h
AUC(0-t) (n = 3 rats, solution V, 300 mg/mL, read-out: AUC0-1344 h): 331 ± 85 µM·h
AUC(0-t) (n = 3 rats, solution V, 300 mg/mL, read-out: AUC0-1680 h): 423 ± 96 µM·h
AUC(0-t) (n = 3 rats, solution V, 300 mg/mL, read-out: AUC0-2352 h): 554 ± 113 µM·h
AUC(0-t) (n = 3 rats, solution V, 300 mg/mL, read-out: AUC0-3024 h): 646 ± 121 µM·h
AUC(0-t) (n = 3 rats, solution V, 300 mg/mL, read-out: AUC0-3696 h): 700 ± 121 µM·h
AUC(0-t) (n = 3 rats, solution V, 300 mg/mL, read-out: AUC0-4704 h): 720 ± 120 µM·h
Cmax [1]: 450 ± 155 nM
AUC(0-t) (n = 5 rats, solution T, 400 mg/mL, read-out: AUC0-24 h): 5.49 ± 1.6 µM·h
AUC(0-t) (n = 5 rats, solution T, 400 mg/mL, read-out: AUC0-168 h): 40.6 ± 15.3 µM·h
AUC(0-t) (n = 5 rats, solution T, 400 mg/mL, read-out: AUC0-336 h): 76.4 ± 25.3 µM·h
AUC(0-t) (n = 5 rats, solution T, 400 mg/mL, read-out: AUC0-672 h): 173 ± 75.6 µM·h
AUC(0-t) (n = 5 rats, solution T, 400 mg/mL, read-out: AUC0-1008 h): 313 ± 157 µM·h
AUC(0-t) (n = 5 rats, solution T, 400 mg/mL, read-out: AUC0-1344 h): 394 ± 185 µM·h
AUC(0-t) (n = 5 rats, solution T, 400 mg/mL, read-out: AUC0-1680 h): 485 ± 195 µM·h
AUC(0-t) (n = 5 rats, solution T, 400 mg/mL, read-out: AUC0-2352 h): 581 ± 146 µM·h
AUC(0-t) (n = 5 rats, solution T, 400 mg/mL, read-out: AUC0-3024 h): 655 ± 112 µM·h
AUC(0-t) (n = 5 rats, solution T, 400 mg/mL, read-out: AUC0-3696 h): 679 ± 103 µM·h
AUC(0-t) (n = 5 rats, solution T, 400 mg/mL, read-out: AUC0-4704 h): 718 ± 88 µM·h
AUC(0-t) (n = 5 rats, solution T, 400 mg/mL, read-out: AUC0-5376 h): 745 ± 76 µM·h
AUC(0-t) (n = 5 rats, solution T, 400 mg/mL, read-out: AUC0-6048 h): 766 ± 66 µM·h
AUC(0-t) (n = 5 rats, solution T, 400 mg/mL, read-out: AUC0-6720 h): 783 ± 59 µM·h
Cmax (n = 5 rats, solution U, 500 mg/mL): 362 ± 147 nM
AUC(0-t) (n = 5 rats, solution U, 500 mg/mL, read-out: AUC0-24 h): 3.74 ± 0.78 µM·h
AUC(0-t) (n = 5 rats, solution U, 500 mg/mL, read-out: AUC0-168 h): 29.8 ± 7.5 µM·h
AUC(0-t) (n = 5 rats, solution U, 500 mg/mL, read-out: AUC0-336 h): 63.2 ± 20.7 µM·h
AUC(0-t) (n = 5 rats, solution U, 500 mg/mL, read-out: AUC0-672 h): 159 ± 77 µM·h
AUC(0-t) (n = 5 rats, solution U, 500 mg/mL, read-out: AUC0-1008 h): 338 ± 141 µM·h
AUC(0-t) (n = 5 rats, solution U, 500 mg/mL, read-out: AUC0-1344 h): 409 ± 159 µM·h
AUC(0-t) (n = 5 rats, solution U, 500 mg/mL, read-out: AUC0-1680 h): 529 ± 194 µM·h
AUC(0-t) (n = 5 rats, solution U, 500 mg/mL, read-out: AUC0-2352 h): 610 ± 215 µM·h
AUC(0-t) (n = 5 rats, solution U, 500 mg/mL, read-out: AUC0-3024 h): 669 ± 233 µM·h
AUC(0-t) (n = 5 rats, solution U, 500 mg/mL, read-out: AUC0-3696 h): 692 ± 233 µM·h
AUC(0-t) (n = 5 rats, solution U, 500 mg/mL, read-out: AUC0-4704 h): 728 ± 249 µM·h
AUC(0-t) (n = 5 rats, solution U, 500 mg/mL, read-out: AUC0-5376 h): 756 ± 256 µM·h
AUC(0-t) (n = 5 rats, solution U, 500 mg/mL, read-out: AUC0-6048 h): 781 ± 261 µM·h
AUC(0-t) (n = 5 rats, solution U, 500 mg/mL, read-out: AUC0-6720 h): 802 ± 266 µM·h
AUC (n = 3 rats, solution R, 400 mg/mL, read-out: AUC0-6720n): 1007 ± 8 µM·h
Tmax [1]: 18.8 ± 17.5 days
SMILES: CC(C)(C#Cc1ccc(-c2ccc(Cl)c3c(NS(C)(=O)=O)nn(CC(F)(F)F)c23)c([C@H](Cc2cc(F)cc(F)c2)NC(=O)Cn2nc(C(F)(F)F)c3c2C(F)(F)[C@@H]2C[C@H]32)n1)S(C)(=O)=O [compound of Formula (Ia)]
